Results: ChEMBL document CHEMBL1145498, “A systematic interaction map of validated kinase inhibitors with Ser/Thr kinases” (Proc Natl Acad Sci U S A, 2007)

Biological target: Calcium/calmodulin-dependent protein kinase type 1D (Homo sapiens) (UniProt Q8IU85)

Row | SMILES | ΔTm
1 | NC1=NC(=O)/C(=C2\CCNC(=O)c3[nH]c(Br)cc32)N1 [HYMENIALDISINE] | 0 °C
2 | O=S(=O)(NCCNC/C=C/c1ccc(Br)cc1)c1cccc2cnccc12 | -0.1 °C

Biological target: Calcium/calmodulin-dependent protein kinase type II subunit delta (Homo sapiens) (UniProt Q13557)
Sequence (Q13557 whole entry): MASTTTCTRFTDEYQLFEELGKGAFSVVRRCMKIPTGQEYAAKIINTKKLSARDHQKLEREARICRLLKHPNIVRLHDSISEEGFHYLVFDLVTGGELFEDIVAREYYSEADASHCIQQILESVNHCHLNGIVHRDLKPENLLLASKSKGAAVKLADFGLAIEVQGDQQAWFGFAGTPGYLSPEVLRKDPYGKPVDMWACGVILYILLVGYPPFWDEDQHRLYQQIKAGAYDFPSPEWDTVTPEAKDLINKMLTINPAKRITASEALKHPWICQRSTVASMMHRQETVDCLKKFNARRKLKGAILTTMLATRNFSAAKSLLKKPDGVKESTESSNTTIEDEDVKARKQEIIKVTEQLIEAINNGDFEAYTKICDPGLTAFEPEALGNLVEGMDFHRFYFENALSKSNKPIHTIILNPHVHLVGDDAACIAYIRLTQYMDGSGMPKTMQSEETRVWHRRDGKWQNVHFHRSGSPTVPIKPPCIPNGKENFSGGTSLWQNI

Row | SMILES | ΔTm
3 | NC1=NC(=O)/C(=C2\CCNC(=O)c3[nH]c(Br)cc32)N1 [HYMENIALDISINE] | 0 °C
4 | O=S(=O)(NCCNC/C=C/c1ccc(Br)cc1)c1cccc2cnccc12 | -0.2 °C

Biological target: Calcium/calmodulin-dependent protein kinase type II subunit gamma (Homo sapiens) (UniProt Q13555)

Row | SMILES | ΔTm
5 | NC1=NC(=O)/C(=C2\CCNC(=O)c3[nH]c(Br)cc32)N1 [HYMENIALDISINE] | 0.2 °C
6 | O=S(=O)(NCCNC/C=C/c1ccc(Br)cc1)c1cccc2cnccc12 | 0 °C

Biological target: Cyclin-dependent kinase 2 (Homo sapiens, UniProt P24941)

Row | SMILES | ΔTm
7 | NC1=NC(=O)/C(=C2\CCNC(=O)c3[nH]c(Br)cc32)N1 [HYMENIALDISINE] | 1.5 °C
8 | O=S(=O)(NCCNC/C=C/c1ccc(Br)cc1)c1cccc2cnccc12 | -0.5 °C

Biological target: Dual specificity protein kinase CLK2 (Homo sapiens) (UniProt P49760)
Sequence (P49760 whole entry, looked up): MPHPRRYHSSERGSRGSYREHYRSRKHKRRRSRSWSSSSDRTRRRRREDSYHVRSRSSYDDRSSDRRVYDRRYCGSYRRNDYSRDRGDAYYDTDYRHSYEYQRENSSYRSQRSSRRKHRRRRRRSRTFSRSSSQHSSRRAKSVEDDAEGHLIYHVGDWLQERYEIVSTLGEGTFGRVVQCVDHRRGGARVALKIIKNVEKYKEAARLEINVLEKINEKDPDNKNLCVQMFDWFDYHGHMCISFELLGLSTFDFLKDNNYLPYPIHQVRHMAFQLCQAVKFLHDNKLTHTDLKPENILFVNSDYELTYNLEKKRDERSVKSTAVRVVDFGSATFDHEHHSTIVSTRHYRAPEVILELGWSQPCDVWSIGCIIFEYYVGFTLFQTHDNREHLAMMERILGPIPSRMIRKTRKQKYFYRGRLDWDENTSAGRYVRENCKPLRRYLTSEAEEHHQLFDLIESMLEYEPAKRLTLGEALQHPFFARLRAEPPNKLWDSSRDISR

Row | SMILES | ΔTm
9 | NC1=NC(=O)/C(=C2\CCNC(=O)c3[nH]c(Br)cc32)N1 [HYMENIALDISINE] | 5.6 °C
10 | O=S(=O)(NCCNC/C=C/c1ccc(Br)cc1)c1cccc2cnccc12 | 0.7 °C

Biological target: Death-associated protein kinase 3 (Homo sapiens) (UniProt O43293)
Sequence (O43293 whole entry, looked up): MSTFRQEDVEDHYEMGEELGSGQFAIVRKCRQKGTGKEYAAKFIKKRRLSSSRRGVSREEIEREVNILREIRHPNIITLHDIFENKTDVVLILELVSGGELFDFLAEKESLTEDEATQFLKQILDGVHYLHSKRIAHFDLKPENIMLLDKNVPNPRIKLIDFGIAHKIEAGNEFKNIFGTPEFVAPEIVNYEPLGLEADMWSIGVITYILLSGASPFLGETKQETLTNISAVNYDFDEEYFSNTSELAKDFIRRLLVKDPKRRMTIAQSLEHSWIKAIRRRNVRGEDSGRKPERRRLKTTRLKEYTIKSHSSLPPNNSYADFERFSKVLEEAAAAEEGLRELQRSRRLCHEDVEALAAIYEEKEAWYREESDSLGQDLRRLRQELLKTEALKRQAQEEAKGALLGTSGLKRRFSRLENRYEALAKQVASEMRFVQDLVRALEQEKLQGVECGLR

Row | SMILES | ΔTm
11 | NC1=NC(=O)/C(=C2\CCNC(=O)c3[nH]c(Br)cc32)N1 [HYMENIALDISINE] | 7.6 °C
12 | O=S(=O)(NCCNC/C=C/c1ccc(Br)cc1)c1cccc2cnccc12 | 3.8 °C

Biological target: T1, Myotonin-protein kinase (Homo sapiens) (UniProt Q09013)
T1 sequence (whole entry): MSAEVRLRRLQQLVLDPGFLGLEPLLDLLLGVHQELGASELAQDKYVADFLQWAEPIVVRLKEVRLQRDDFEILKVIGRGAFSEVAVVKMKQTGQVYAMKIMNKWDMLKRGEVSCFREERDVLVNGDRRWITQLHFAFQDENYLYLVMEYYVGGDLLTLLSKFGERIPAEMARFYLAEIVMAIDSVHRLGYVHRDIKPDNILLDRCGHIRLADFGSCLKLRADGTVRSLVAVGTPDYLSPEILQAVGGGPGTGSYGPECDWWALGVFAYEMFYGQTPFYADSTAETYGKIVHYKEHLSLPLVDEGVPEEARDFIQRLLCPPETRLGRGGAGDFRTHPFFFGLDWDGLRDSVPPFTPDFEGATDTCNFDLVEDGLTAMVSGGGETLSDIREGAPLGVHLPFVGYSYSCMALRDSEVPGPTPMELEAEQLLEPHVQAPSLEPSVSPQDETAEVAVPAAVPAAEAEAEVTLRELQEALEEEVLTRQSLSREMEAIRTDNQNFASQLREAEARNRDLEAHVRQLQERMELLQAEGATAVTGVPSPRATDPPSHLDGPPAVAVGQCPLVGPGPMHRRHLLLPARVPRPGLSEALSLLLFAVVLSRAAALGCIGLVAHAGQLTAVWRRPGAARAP

Row | SMILES | ΔTm
13 | NC1=NC(=O)/C(=C2\CCNC(=O)c3[nH]c(Br)cc32)N1 [HYMENIALDISINE] | 2.1 °C
14 | O=S(=O)(NCCNC/C=C/c1ccc(Br)cc1)c1cccc2cnccc12 | -0.6 °C

Biological target: Dual specificity mitogen-activated protein kinase kinase 2 (Homo sapiens, UniProt P36507)
Sequence (P36507 whole entry): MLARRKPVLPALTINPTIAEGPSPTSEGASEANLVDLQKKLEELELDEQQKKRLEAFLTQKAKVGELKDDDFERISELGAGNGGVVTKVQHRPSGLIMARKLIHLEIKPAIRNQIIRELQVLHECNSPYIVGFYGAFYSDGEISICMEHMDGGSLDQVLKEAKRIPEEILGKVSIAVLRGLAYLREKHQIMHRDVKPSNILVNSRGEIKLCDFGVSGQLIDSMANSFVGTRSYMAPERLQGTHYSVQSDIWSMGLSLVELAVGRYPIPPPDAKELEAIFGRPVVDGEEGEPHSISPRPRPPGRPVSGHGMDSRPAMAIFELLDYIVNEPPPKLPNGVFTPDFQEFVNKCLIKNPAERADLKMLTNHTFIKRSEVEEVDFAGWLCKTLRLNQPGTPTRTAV

Row | SMILES | ΔTm
15 | NC1=NC(=O)/C(=C2\CCNC(=O)c3[nH]c(Br)cc32)N1 [HYMENIALDISINE] | 2 °C
16 | O=S(=O)(NCCNC/C=C/c1ccc(Br)cc1)c1cccc2cnccc12 | 0 °C

Biological target: Mitogen-activated protein kinase 11 (Homo sapiens, UniProt Q15759)

Row | SMILES | ΔTm
17 | NC1=NC(=O)/C(=C2\CCNC(=O)c3[nH]c(Br)cc32)N1 [HYMENIALDISINE] | 0.1 °C
18 | O=S(=O)(NCCNC/C=C/c1ccc(Br)cc1)c1cccc2cnccc12 | 0.4 °C

Biological target: Serine/threonine-protein kinase 26 (Homo sapiens) (UniProt Q9P289)
Sequence (Q9P289 2-416 limits assumed): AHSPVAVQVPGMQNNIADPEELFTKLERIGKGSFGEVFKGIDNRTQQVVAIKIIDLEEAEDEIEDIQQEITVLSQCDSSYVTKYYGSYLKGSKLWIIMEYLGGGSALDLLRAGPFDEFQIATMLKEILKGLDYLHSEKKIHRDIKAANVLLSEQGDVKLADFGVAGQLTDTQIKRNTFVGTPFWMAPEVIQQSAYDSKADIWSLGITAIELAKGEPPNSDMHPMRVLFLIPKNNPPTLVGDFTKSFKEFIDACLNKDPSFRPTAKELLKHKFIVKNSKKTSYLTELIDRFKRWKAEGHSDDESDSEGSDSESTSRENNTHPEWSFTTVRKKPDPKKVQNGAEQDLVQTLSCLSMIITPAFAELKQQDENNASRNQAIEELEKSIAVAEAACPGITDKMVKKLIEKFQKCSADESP

Row | SMILES | ΔTm
19 | NC1=NC(=O)/C(=C2\CCNC(=O)c3[nH]c(Br)cc32)N1 [HYMENIALDISINE] | 4 °C
20 | O=S(=O)(NCCNC/C=C/c1ccc(Br)cc1)c1cccc2cnccc12 | 1.2 °C

Biological target: Serine/threonine-protein kinase OSR1 (Homo sapiens) (UniProt O95747)
Sequence (O95747 2-527 limits assumed): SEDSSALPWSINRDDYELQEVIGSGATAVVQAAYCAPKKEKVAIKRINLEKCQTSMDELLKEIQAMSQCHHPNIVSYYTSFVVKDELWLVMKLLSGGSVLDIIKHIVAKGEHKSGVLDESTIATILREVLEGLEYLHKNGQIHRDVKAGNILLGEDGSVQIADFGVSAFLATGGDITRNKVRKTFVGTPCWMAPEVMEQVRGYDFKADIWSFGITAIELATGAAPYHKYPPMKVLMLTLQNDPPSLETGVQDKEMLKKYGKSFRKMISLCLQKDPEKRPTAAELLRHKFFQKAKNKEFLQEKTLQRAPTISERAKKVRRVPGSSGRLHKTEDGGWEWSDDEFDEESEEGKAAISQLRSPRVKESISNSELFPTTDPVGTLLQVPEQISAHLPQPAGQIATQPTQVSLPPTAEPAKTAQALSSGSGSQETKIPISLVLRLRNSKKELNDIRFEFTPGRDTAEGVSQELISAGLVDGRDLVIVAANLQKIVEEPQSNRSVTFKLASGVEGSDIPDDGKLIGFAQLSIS

Row | SMILES | ΔTm
21 | NC1=NC(=O)/C(=C2\CCNC(=O)c3[nH]c(Br)cc32)N1 [HYMENIALDISINE] | 0.5 °C
22 | O=S(=O)(NCCNC/C=C/c1ccc(Br)cc1)c1cccc2cnccc12 | 0.9 °C

Biological target: Serine/threonine-protein kinase PAK 5 (Homo sapiens) (UniProt Q9P286)

Row | SMILES | ΔTm
23 | NC1=NC(=O)/C(=C2\CCNC(=O)c3[nH]c(Br)cc32)N1 [HYMENIALDISINE] | 0.4 °C
24 | O=S(=O)(NCCNC/C=C/c1ccc(Br)cc1)c1cccc2cnccc12 | 1.2 °C

Biological target: Serine/threonine-protein kinase pim-1 (Homo sapiens) (UniProt P11309)
Sequence (P11309 whole entry, looked up): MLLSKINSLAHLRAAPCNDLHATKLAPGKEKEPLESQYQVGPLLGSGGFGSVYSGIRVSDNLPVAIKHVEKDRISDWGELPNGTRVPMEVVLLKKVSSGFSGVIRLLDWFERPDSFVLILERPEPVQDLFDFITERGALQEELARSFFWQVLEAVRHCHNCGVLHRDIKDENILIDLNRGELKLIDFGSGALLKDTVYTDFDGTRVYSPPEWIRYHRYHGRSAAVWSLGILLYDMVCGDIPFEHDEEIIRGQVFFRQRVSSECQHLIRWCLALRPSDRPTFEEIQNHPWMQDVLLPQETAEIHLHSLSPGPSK

Row | SMILES | ΔTm
25 | NC1=NC(=O)/C(=C2\CCNC(=O)c3[nH]c(Br)cc32)N1 [HYMENIALDISINE] | 0.7 °C
26 | O=S(=O)(NCCNC/C=C/c1ccc(Br)cc1)c1cccc2cnccc12 | -0.2 °C

Biological target: Serine/threonine-protein kinase pim-2 (Homo sapiens, UniProt Q9P1W9)
Sequence (Q9P1W9 whole entry, looked up): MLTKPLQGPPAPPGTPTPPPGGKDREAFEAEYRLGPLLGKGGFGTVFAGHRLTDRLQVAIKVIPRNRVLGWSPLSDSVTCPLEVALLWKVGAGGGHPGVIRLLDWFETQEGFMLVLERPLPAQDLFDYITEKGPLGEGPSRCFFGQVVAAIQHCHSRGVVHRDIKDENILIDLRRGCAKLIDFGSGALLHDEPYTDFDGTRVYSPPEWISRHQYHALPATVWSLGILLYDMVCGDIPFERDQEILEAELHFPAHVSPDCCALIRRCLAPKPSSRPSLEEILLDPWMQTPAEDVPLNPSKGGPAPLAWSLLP

Row | SMILES | ΔTm
27 | NC1=NC(=O)/C(=C2\CCNC(=O)c3[nH]c(Br)cc32)N1 [HYMENIALDISINE] | 3.7 °C
28 | O=S(=O)(NCCNC/C=C/c1ccc(Br)cc1)c1cccc2cnccc12 | -0.3 °C

Biological target: Serine/threonine-protein kinase pim-3 (Homo sapiens) (UniProt Q86V86)

Row | SMILES | ΔTm
29 | NC1=NC(=O)/C(=C2\CCNC(=O)c3[nH]c(Br)cc32)N1 [HYMENIALDISINE] | 3.8 °C
30 | O=S(=O)(NCCNC/C=C/c1ccc(Br)cc1)c1cccc2cnccc12 | 1 °C

Biological target: Ribosomal protein S6 kinase alpha-3 (Homo sapiens) (UniProt P51812)
Sequence (P51812 whole entry): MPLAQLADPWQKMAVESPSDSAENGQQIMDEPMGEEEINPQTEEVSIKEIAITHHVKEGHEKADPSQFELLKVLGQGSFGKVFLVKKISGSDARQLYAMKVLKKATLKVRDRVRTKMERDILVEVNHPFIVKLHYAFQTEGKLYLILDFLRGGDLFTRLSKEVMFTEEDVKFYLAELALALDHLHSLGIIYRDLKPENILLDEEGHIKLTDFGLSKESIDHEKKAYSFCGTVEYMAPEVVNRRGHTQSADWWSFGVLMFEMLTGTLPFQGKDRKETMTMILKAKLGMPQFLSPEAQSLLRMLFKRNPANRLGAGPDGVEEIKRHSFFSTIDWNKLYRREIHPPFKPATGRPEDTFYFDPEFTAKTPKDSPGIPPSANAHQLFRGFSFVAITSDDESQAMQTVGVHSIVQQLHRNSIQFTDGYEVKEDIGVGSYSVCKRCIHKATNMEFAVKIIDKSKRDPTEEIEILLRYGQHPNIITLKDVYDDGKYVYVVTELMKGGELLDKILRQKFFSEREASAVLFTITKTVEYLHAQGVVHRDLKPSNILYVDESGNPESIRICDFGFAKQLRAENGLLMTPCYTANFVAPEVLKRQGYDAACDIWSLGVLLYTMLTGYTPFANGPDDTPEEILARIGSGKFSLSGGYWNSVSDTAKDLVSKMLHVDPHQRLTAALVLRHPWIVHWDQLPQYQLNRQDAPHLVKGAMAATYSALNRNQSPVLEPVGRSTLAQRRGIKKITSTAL

Row | SMILES | ΔTm
31 | NC1=NC(=O)/C(=C2\CCNC(=O)c3[nH]c(Br)cc32)N1 [HYMENIALDISINE] | 6.3 °C
32 | O=S(=O)(NCCNC/C=C/c1ccc(Br)cc1)c1cccc2cnccc12 | 0.6 °C

Biological target: T2, Serine/threonine-protein kinase 17A (Homo sapiens) (UniProt Q9UEE5)
T2 sequence (whole entry): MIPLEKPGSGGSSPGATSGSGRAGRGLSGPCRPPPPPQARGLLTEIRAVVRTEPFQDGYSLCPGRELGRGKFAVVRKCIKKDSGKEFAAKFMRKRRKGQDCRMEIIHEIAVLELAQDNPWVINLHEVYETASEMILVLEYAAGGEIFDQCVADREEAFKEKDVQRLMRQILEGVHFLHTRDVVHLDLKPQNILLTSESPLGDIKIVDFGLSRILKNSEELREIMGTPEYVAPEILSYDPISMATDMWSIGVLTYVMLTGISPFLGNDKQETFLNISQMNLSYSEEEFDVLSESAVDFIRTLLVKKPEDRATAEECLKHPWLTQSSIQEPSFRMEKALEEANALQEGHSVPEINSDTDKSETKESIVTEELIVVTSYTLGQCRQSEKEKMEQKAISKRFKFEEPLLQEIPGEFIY

Row | SMILES | ΔTm
33 | NC1=NC(=O)/C(=C2\CCNC(=O)c3[nH]c(Br)cc32)N1 [HYMENIALDISINE] | 14.8 °C
34 | O=S(=O)(NCCNC/C=C/c1ccc(Br)cc1)c1cccc2cnccc12 | 1.7 °C

Biological target: Serine/threonine-protein kinase 26 (Homo sapiens) (UniProt Q9P289)
Remark: another data set of the same source

Row | SMILES | ΔTm
35 | NC1=NC(=O)/C(=C2\CCNC(=O)c3[nH]c(Br)cc32)N1 [HYMENIALDISINE] | 1.8 °C
36 | O=S(=O)(NCCNC/C=C/c1ccc(Br)cc1)c1cccc2cnccc12 | 0.9 °C

Biological target: T3, Lymphokine-activated killer T-cell-originated protein kinase (Homo sapiens) (UniProt Q96KB5)
T3 sequence (whole entry): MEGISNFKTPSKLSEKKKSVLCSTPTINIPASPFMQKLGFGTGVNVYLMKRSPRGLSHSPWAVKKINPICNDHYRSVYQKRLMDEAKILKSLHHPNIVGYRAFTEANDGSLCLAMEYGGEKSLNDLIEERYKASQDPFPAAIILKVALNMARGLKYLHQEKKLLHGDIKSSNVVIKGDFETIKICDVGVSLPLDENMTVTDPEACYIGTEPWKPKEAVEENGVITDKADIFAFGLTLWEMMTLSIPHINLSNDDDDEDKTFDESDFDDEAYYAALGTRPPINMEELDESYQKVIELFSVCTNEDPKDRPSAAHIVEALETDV

Row | SMILES | ΔTm
37 | NC1=NC(=O)/C(=C2\CCNC(=O)c3[nH]c(Br)cc32)N1 [HYMENIALDISINE] | 0.1 °C
38 | O=S(=O)(NCCNC/C=C/c1ccc(Br)cc1)c1cccc2cnccc12 | 0.6 °C

Biological target: T4, Serine/threonine-protein kinase VRK1 (Homo sapiens) (UniProt Q99986)
T4 sequence (whole entry): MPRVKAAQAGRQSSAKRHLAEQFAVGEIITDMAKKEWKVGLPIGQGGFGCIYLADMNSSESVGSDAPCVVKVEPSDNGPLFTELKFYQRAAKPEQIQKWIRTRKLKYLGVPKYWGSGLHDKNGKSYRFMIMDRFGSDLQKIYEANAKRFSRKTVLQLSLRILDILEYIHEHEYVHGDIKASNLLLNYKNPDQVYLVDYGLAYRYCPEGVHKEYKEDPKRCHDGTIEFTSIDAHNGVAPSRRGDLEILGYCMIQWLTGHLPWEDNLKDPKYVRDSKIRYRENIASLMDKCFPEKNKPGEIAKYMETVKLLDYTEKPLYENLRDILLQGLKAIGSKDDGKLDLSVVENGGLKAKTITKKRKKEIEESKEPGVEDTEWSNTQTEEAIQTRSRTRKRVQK

Row | SMILES | ΔTm
39 | NC1=NC(=O)/C(=C2\CCNC(=O)c3[nH]c(Br)cc32)N1 [HYMENIALDISINE] | 2 °C
40 | O=S(=O)(NCCNC/C=C/c1ccc(Br)cc1)c1cccc2cnccc12 | -0.3 °C

Biological target: Serine/threonine-protein kinase 25 (Homo sapiens) (UniProt O00506)
Sequence (O00506 whole entry, looked up): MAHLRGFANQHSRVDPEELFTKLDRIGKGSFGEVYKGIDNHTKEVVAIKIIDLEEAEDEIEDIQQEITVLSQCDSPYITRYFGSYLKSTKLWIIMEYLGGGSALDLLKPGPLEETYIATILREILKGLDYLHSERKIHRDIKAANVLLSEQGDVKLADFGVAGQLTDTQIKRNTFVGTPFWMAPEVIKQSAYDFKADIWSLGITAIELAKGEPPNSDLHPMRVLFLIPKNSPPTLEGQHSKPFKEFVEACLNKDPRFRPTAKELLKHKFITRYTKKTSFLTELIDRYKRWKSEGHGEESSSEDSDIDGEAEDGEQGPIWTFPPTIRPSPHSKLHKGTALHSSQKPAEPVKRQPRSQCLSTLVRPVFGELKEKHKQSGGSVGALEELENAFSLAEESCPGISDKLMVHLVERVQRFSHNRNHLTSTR

Row | SMILES | ΔTm
41 | NC1=NC(=O)/C(=C2\CCNC(=O)c3[nH]c(Br)cc32)N1 [HYMENIALDISINE] | 3.5 °C
42 | O=S(=O)(NCCNC/C=C/c1ccc(Br)cc1)c1cccc2cnccc12 | 1 °C
